Laboratory results as given in ChEMBL document CHEMBL1201862, “PubChem BioAssay data set” (2004).
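1) Cells in 96-well plates. 2) Compound, 48 h, 5 concentrations. 3) Linear interpolation between surrounding doses. 4) Unreached endpoint = highest concentration. GI50 marks 50% less growth.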 Calls of active or inactive are those of the source. Cut-off read from the data, not from the text of the source: active = GI50 up to about 1.1 µM and inactive = higher.

Columns and labels:
Test in all cases: NCI tumour cell line growth inhibition, 48 h
[1] = system: SK-MEL-5
[2] = system: OVCAR-4
[3] = system: OVCAR-8
[4] = system: SNB-19
[5] = system: 786-0
[6] = system: M14
[7] = system: HT-29
[8] = system: A498
[9] = system: LOX IMVI
[10] = system: UACC-62
[11] = system: Malme-3M
[12] = system: SK-OV-3
[13] = system: EKVX
[14] = system: SK-MEL-2
[15] = system: HOP-62
[16] = system: SR
[17] = system: NCI-H522
[18] = system: MOLT-4
[19] = system: SNB-75
[20] = system: MCF7

SMILES	GI50 [1]	GI50 [2]	GI50 [3]	GI50 [4]	GI50 [5]	GI50 [6]	GI50 [7]	GI50 [8]	GI50 [9]	GI50 [10]	GI50 [11]	GI50 [12]	GI50 [13]	GI50 [14]	GI50 [15]	GI50 [16]	GI50 [17]	GI50 [18]	GI50 [19]	GI50 [20]
CCC/C(=N\NC(=O)c1cc2ccccc2cc1O)C(CC)C(=O)CCC(=O)N(Cc1ccccc1)Cc1ccccc1 (centres undefined)	23.4 µM (inactive)	59 µM (inactive)	49.9 µM (inactive)	27.7 µM (inactive)	25.7 µM (inactive)	32.7 µM (inactive)	83.2 µM (inactive)	85.9 µM (inactive)	43 µM (inactive)	11.2 µM (inactive)	50.1 µM (inactive)	> 100 µM (inactive)	32 µM (inactive)	28.6 µM (inactive)	81.1 µM (inactive)	31 µM (inactive)	39.1 µM (inactive)	30.7 µM (inactive)	9.73 µM (inactive)	–
O=C1CCCN1C(=O)CS(=O)(=O)c1ccccc1	> 100 µM (inactive)	> 100 µM (inactive)	> 100 µM (inactive)	> 100 µM (inactive)	> 100 µM (inactive)	> 100 µM (inactive)	> 100 µM (inactive)	> 100 µM (inactive)	> 100 µM (inactive)	> 100 µM (inactive)	> 100 µM (inactive)	> 100 µM (inactive)	–	> 100 µM (inactive)	> 100 µM (inactive)	> 100 µM (inactive)	> 100 µM (inactive)	> 100 µM (inactive)	> 100 µM (inactive)	–
Cc1cccc(-n2c(=S)[nH]c3c(sc(=O)n3-c3ccccc3C)c2=O)c1	> 100 µM (inactive)	> 100 µM (inactive)	> 100 µM (inactive)	> 100 µM (inactive)	> 100 µM (inactive)	> 100 µM (inactive)	> 100 µM (inactive)	> 100 µM (inactive)	–	> 100 µM (inactive)	> 100 µM (inactive)	> 100 µM (inactive)	> 100 µM (inactive)	> 100 µM (inactive)	> 100 µM (inactive)	> 100 µM (inactive)	> 100 µM (inactive)	> 100 µM (inactive)	> 100 µM (inactive)	–
O=S1(=O)OCCOS(=O)(=O)C1Cl	> 100 µM (inactive)	> 100 µM (inactive)	> 100 µM (inactive)	> 100 µM (inactive)	> 100 µM (inactive)	> 100 µM (inactive)	> 100 µM (inactive)	> 100 µM (inactive)	–	82.6 µM (inactive)	> 100 µM (inactive)	> 100 µM (inactive)	> 100 µM (inactive)	> 100 µM (inactive)	> 100 µM (inactive)	> 100 µM (inactive)	> 100 µM (inactive)	> 100 µM (inactive)	> 100 µM (inactive)	–
COc1ccc(/C(=N/O)C(c2ccc(OC)cc2)C2C(=O)Oc3ccccc32)cc1 (centres undefined)	24.8 µM (inactive)	48.6 µM (inactive)	61.7 µM (inactive)	–	> 100 µM (inactive)	51.3 µM (inactive)	> 100 µM (inactive)	> 100 µM (inactive)	79.6 µM (inactive)	82 µM (inactive)	63.1 µM (inactive)	> 100 µM (inactive)	53.1 µM (inactive)	38.5 µM (inactive)	–	> 100 µM (inactive)	35.6 µM (inactive)	> 100 µM (inactive)	82.8 µM (inactive)	–
CC(=O)/C=C\C(=O)NNS(=O)(=O)c1ccc(C)cc1	> 100 µM (inactive)	> 100 µM (inactive)	> 100 µM (inactive)	> 100 µM (inactive)	> 100 µM (inactive)	> 100 µM (inactive)	> 100 µM (inactive)	> 100 µM (inactive)	> 100 µM (inactive)	> 100 µM (inactive)	> 100 µM (inactive)	> 100 µM (inactive)	> 100 µM (inactive)	> 100 µM (inactive)	> 100 µM (inactive)	> 100 µM (inactive)	> 100 µM (inactive)	> 100 µM (inactive)	> 100 µM (inactive)	–
NC1=NS(=O)(=O)Nc2nc(-c3ccc([N+](=O)[O-])o3)[nH]c21	18.3 µM (inactive)	17.1 µM (inactive)	25.1 µM (inactive)	16.7 µM (inactive)	15.6 µM (inactive)	14.9 µM (inactive)	19.4 µM (inactive)	76.6 µM (inactive)	15.9 µM (inactive)	15.9 µM (inactive)	16.7 µM (inactive)	> 10 µM (inactive)	–	16.5 µM (inactive)	18.5 µM (inactive)	4.73 µM (inactive)	17.4 µM (inactive)	9.62 µM (inactive)	16 µM (inactive)	–
Nc1ncnc2c1nnn2C1C=CC(CP(=O)(O)O)C1 (centres undefined)	> 100 µM (inactive)	> 100 µM (inactive)	> 100 µM (inactive)	> 100 µM (inactive)	> 100 µM (inactive)	> 100 µM (inactive)	> 100 µM (inactive)	–	> 100 µM (inactive)	> 100 µM (inactive)	> 100 µM (inactive)	> 100 µM (inactive)	> 100 µM (inactive)	> 100 µM (inactive)	> 100 µM (inactive)	–	–	> 100 µM (inactive)	–	> 100 µM (inactive)
O=c1[nH]cnc2[nH]nnc12	41.5 µM (inactive)	4.93 µM (inactive)	0.723 µM (active)	88.5 µM (inactive)	3.27 µM (inactive)	1.11 µM (active)	7.96 µM (inactive)	57 µM (inactive)	0.668 µM (active)	0.968 µM (active)	1.41 µM (inactive)	4.31 µM (inactive)	> 100 µM (inactive)	0.386 µM (active)	1.99 µM (inactive)	0.92 µM (active)	9.51 µM (inactive)	0.726 µM (active)	4.11 µM (inactive)	–
C=C1C(OC(C)=O)CC(OC(C)=O)C2(C)C(OC(C)=O)C(OC(C)=O)C3=C(C)C(OC(=O)/C=C/c4ccccc4)CC(C(OC(C)=O)C12)C3(C)C (centres undefined)	> 100 µM (inactive)	16.7 µM (inactive)	46.3 µM (inactive)	51.8 µM (inactive)	30.8 µM (inactive)	> 100 µM (inactive)	> 100 µM (inactive)	61.1 µM (inactive)	> 100 µM (inactive)	> 100 µM (inactive)	59.3 µM (inactive)	30.5 µM (inactive)	–	55.6 µM (inactive)	31 µM (inactive)	> 100 µM (inactive)	68.1 µM (inactive)	> 100 µM (inactive)	15.1 µM (inactive)	–
CN(C)Cc1cc(/C(=C(\C#N)c2ccccc2)c2ccc(O)cc2)ccc1O	14.5 µM (inactive)	21.5 µM (inactive)	19.1 µM (inactive)	28.8 µM (inactive)	15 µM (inactive)	10.4 µM (inactive)	15.4 µM (inactive)	32.2 µM (inactive)	12.1 µM (inactive)	17.8 µM (inactive)	16.1 µM (inactive)	27 µM (inactive)	23.9 µM (inactive)	17.3 µM (inactive)	14.4 µM (inactive)	12.9 µM (inactive)	12.9 µM (inactive)	15.3 µM (inactive)	17.5 µM (inactive)	–
